PubChem BioAssay AID1000 (SRMLSC, 2008)
Activity calls are given as the source filed them.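 The calls were made as follows: active = over 20% inhibition at the single screening dose, then confirmed by dose response with half-maximal potency of 40 µM or better; inactive = the rest.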

Target: mevalonate kinase (Streptococcus pneumoniae D39)
Assay: mevalonate kinase inhibitor confirmation – biochemical, cuvette format, NADH absorbance 340 nm (AID 1000)
Conditions: recombinant MK, PK/LDH coupled NADH absorbance 340 nm

Row | IC50 | Structure (SMILES)
1 | 83 nM | Cc1ccc(-n2sc3ccccc3c2=O)cc1S(=O)(=O)N1CCCC1
2 | 432 nM | O=C(c1cccc(-n2sc3ccccc3c2=O)c1)N1CCOCC1
3 | 244 nM | O=C(c1cccc(-n2sc3ccccc3c2=O)c1)N1CCCCC1
4 | 230 nM | O=C(c1cccc(-n2sc3ccccc3c2=O)c1)N1CCCC1
5 | 17300 nM | O=c1c2ccccc2nc2n1CCC2NC(c1ccccc1)c1ccccc1 (configuration not stated)

The remaining lines, values behind:

Row | Structure (SMILES) | IC50
6 | O=C(NCc1ccco1)c1ccc(-n2sc3ccccc3c2=O)cc1 | 157 nM
7 | O=C(c1ccccc1-n1sc2ccccc2c1=O)N1CCCC1 | 514 nM
8 | CN(C)C(=O)c1ccccc1-n1sc2ccccc2c1=O | 754 nM
9 | CCCN(CCC)C(=O)c1cccc(-n2sc3ccccc3c2=O)c1 | 304 nM
10 | CN1CCN(C(=O)c2ccc(-n3sc4ccccc4c3=O)cc2)CC1 | 459 nM
11 | O=C(NCc1ccco1)c1cccc(-n2sc3ccccc3c2=O)c1 | 137 nM
12 | CCN(CC)C(=O)c1ccc(-n2sc3ccccc3c2=O)cc1 | 230 nM
13 | O=C(NCC1CC1)c1ccc(-n2sc3ccccc3c2=O)cc1 | 176 nM
14 | Cc1ccc(-n2sc3ccccc3c2=O)cc1C(=O)N1CCCCC1 | 306 nM
15 | O=C(NCc1ccco1)c1ccccc1-n1sc2ccccc2c1=O | 579 nM
16 | CCN(CC)C(=O)c1ccccc1-n1sc2ccccc2c1=O | 1010 nM
17 | CCCNC(=O)c1ccc(-n2sc3ccccc3c2=O)cc1 | 134 nM
18 | CN(C)C(=O)c1ccc(-n2sc3ccccc3c2=O)cc1 | 389 nM
19 | CCN(CC)C(=O)c1cccc(-n2sc3ccccc3c2=O)c1 | 214 nM
20 | O=C(c1ccccc1-n1sc2ccccc2c1=O)N1CCOCC1 | 1630 nM
21 | O=C(c1ccc(-n2sc3ccccc3c2=O)cc1)N1CCCCC1 | 246 nM

Row | Structure (SMILES) | IC50
22 | CCCN(CCC)C(=O)c1ccccc1-n1sc2ccccc2c1=O | 795 nM
23 | O=C(NCCN1CCCC1)c1ccc(-n2sc3ccccc3c2=O)cc1 | 304 nM
24 | O=C(NCc1ccccc1)c1ccccc1-n1sc2ccccc2c1=O | 242 nM
25 | O=C(NCc1ccccc1)c1cccc(-n2sc3ccccc3c2=O)c1 | 68 nM
26 | O=C(NC1CC1)c1cccc(-n2sc3ccccc3c2=O)c1 | 197 nM
27 | O=C(c1ccc(-n2sc3ccccc3c2=O)cc1)N1CCOCC1 | 383 nM
28 | CCCNC(=O)c1ccccc1-n1sc2ccccc2c1=O | 381 nM
29 | O=C(NCc1ccccc1)c1ccc(-n2sc3ccccc3c2=O)cc1 | 94 nM
30 | O=C(c1ccccc1-n1sc2ccccc2c1=O)N1CCCCC1 | 531 nM
31 | CCCN(CCC)C(=O)c1ccc(-n2sc3ccccc3c2=O)cc1 | 168 nM
32 | O=C(NC1CC1)c1ccc(-n2sc3ccccc3c2=O)cc1 | 171 nM
33 | O=C(NC1CC1)c1ccccc1-n1sc2ccccc2c1=O | 958 nM
34 | CN(C)C(=O)c1cccc(-n2sc3ccccc3c2=O)c1 | 369 nM
35 | CCCNC(=O)c1cccc(-n2sc3ccccc3c2=O)c1 | 277 nM
36 | O=C(c1ccc(-n2sc3ccccc3c2=O)cc1)N1CCCC1 | 198 nM

Same assay, conditions: recombinant MK, PK/LDH coupled NADH absorbance 340 nm; at 100 µM; stronger effect = higher value

Row | Structure (SMILES) | inhibition
37 | O=c1c2ccccc2nc2n1CCC2(Br)Br | inactive
38 | COc1ccc(CSC2CCn3c2nc2ccccc2c3=O)cc1 (configuration not stated) | inactive
39 | O=c1c2ccccc2nc2n1CCC2NC1CC1 (configuration not stated) | inactive
40 | O=c1c2ccccc2nc2n1CCC2N1CCOCC1 (configuration not stated) | inactive
41 | O=c1c2ccccc2nc2n1CCC2N1CCC(Cc2ccccc2)CC1 (configuration not stated) | inactive
42 | O=c1c2cc(Cl)ccc2nc2n1CCC2 | inactive
43 | O=c1c2c(Cl)cccc2nc2n1CCC2 | inactive
44 | O=c1c2cc(Br)ccc2nc2n1CCC2 | inactive
45 | O=c1c2ccccc2nc2n1CCC2SCCc1ccccc1 (configuration not stated) | inactive
46 | Cc1cccc2c(=O)n3c(nc12)CCC3 | inactive
47 | O=c1c2cc(F)ccc2nc2n1CCC2 | inactive
48 | Cc1ccc2nc3n(c(=O)c2c1)CCC3 | inactive
49 | COc1cc2nc3n(c(=O)c2cc1OC)CCC3 | inactive
50 | O=c1c2c(F)cccc2nc2n1CCC2 | inactive
51 | O=c1c2cccc(Cl)c2nc2n1CCC2 | inactive
52 | O=c1c2ccc(F)cc2nc2n1CCC2 | inactive
53 | COc1cccc(CCNC2CCn3c2nc2ccccc2c3=O)c1 (configuration not stated) | inactive
54 | COc1cccc2c(=O)n3c(nc12)CCC3 | inactive
55 | O=c1c2ccc(Cl)cc2nc2n1CCC2 | inactive
56 | COc1cccc2c(=O)n3c(nc12)/C(=C/c1ccc2c(c1)OCO2)CC3 | inactive
57 | O=c1c2ccccc2nc2n1CCC2SCc1ccccc1 (configuration not stated) | inactive
